Source: US20250320184A1 (SIRONAX LTD., priority 2022, published 2025)

Biological target: T1, SARM1 (50-724) (Homo sapiens, UniProt Q6SZW1)
T1 sequence (Q6SZW1 50-724): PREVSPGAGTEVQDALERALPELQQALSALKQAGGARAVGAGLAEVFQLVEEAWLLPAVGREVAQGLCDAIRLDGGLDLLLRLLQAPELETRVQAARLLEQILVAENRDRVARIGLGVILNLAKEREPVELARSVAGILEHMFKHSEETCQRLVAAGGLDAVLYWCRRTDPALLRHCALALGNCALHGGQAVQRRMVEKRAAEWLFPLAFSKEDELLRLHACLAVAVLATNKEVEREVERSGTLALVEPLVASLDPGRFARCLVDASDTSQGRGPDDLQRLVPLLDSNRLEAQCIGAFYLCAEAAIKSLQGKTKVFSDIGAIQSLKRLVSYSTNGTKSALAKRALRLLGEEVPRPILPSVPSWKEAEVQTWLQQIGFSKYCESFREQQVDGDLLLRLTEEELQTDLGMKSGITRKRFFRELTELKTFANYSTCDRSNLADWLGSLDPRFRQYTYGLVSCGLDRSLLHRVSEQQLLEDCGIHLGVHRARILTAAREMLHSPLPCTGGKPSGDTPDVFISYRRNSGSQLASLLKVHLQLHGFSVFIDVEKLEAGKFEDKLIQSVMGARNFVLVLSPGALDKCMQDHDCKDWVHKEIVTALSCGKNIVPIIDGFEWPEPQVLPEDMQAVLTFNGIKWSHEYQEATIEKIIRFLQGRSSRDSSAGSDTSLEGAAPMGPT
Assay: biochemical
Procedure: An enzymatic assay was performed in a 384-well plate using Dulbecco's phosphate-buffered saline (PBS) as the reaction buffer. […] The reaction was initiated by adding a mixture of 200 μM nicotinamide mononucleotide (NMN) as activator and 100 μM NAD^+ as substrate. After 1 h of incubation at room temperature, the reaction was terminated with 10 times volume of 70% acetonitrile, then centrifuged at 3800 rpm for 10 min.

Question: Which IC50 does the source give for `CC(Nc1ccc2cc[nH]c(=O)c2c1)c1cc(Cl)cc(Cl)c1Cl` (racemic) [Example 138, 7-((1-(2,3,5-trichlorophenyl)ethyl)amino)isoquinolin-1(2H)-one] here?
Answer: < 100 nM

Question: `CC(Nc1ccc2cc[nH]c(=O)c2c1)c1cccc(F)c1Cl` (racemic) [Example 139, 7-((1-(2-chloro-3-fluorophenyl)ethyl)amino)isoquinolin-1(2H)-one] was tested. Which IC50 did it give?
Answer: 100 to 500 nM

Question: For `CC(Nc1ccc2ccnn2c1)c1cccc(Cl)c1Cl` (racemic) [Example 140, N-(1-(2,3-dichlorophenyl)ethyl)pyrazolo[1,5-a]pyridin-6-amine], which IC50 is on record?
Answer: 500 to 1000 nM

Question: How did the IC50 turn out when `CC(Nc1ccc2c(cnn2C)c1)c1cccc(Cl)c1Cl` (racemic) [Example 141, N-(1-(2,3-dichlorophenyl)ethyl)-1-methyl-1H-indazol-5-amine] was run?
Answer: > 1000 nM

Question: For `CC(Nc1ccc2ccn(Cc3ccccc3)c(=O)c2c1)c1cccc(Cl)c1Cl` (racemic) [Example 142, 2-benzyl-7-((1-(2,3-dichlorophenyl)ethyl)amino)isoquinolin-1(2H)-one], which IC50 is on record?
Answer: 500 to 1000 nM

Question: For `CCC(Nc1ccc2cc[nH]c(=O)c2c1)c1cccc(Cl)c1Cl` (racemic) [Example 143, 7-((1-(2,3-dichlorophenyl)propyl)amino)isoquinolin-1(2H)-one], which IC50 is on record?
Answer: < 100 nM

Question: How did the IC50 turn out when `Cc1cc(F)cc(C(Nc2ccc3c(c2)C(=O)NCC3)C(C)C)c1` (racemic) [Example 144, 7-((1-(3-fluoro-5-methylphenyl)-2-methylpropyl)amino)-3,4-dihydroisoquinolin-1(2H)-one] was run?
Answer: 100 to 500 nM

Question: How did the IC50 turn out when `C=CCCC(Nc1ccc2c(c1)C(=O)NCC2)c1cc(C)cc(F)c1` (racemic) [Example 145, 7-((1-(3-fluoro-5-methylphenyl)pent-4-en-1-yl)amino)-3,4-dihydroisoquinolin-1(2H)-one] was run?
Answer: 500 to 1000 nM

Question: For `CCC(Nc1ccc2nc[nH]c(=O)c2c1)c1cccc(Cl)c1Cl` (racemic) [Example 146, 6-[1-(2,3-dichlorophenyl)propylamino]-3H-quinazolin-4-one], which IC50 is on record?
Answer: < 100 nM

Question: With `CCC(Nc1ccc2c(c1)C(=O)NCN2)c1cccc(Cl)c1Cl` (racemic) [Example 147, 6-((1-(2,3-dichlorophenyl)propyl)amino)-2,3-dihydroquinazolin-4(1H)-one] as the compound, how does the IC50 read?
Answer: 100 to 500 nM

Question: For `CC(Nc1ccc2nccc(=O)n2c1)c1cccc(Cl)c1Cl` (racemic) [Example 148, 7-((1-(2,3-dichlorophenyl)ethyl)amino)-4H-pyrido[1,2-a]pyrimidin-4-one], which IC50 is on record?
Answer: > 1000 nM

Question: With `CC(Nc1ccc2cnn(C)c(=O)c2c1)c1cccc(Cl)c1Cl` (racemic) [Example 149, 7-((1-(2,3-dichlorophenyl)ethyl)amino)-2-methylphthalazin-1(2H)-one] as the compound, how does the IC50 read?
Answer: 100 to 500 nM

Question: `CC(Nc1cccc(-c2cccnn2)c1)c1cccc(Cl)c1Cl` (racemic) [Example 150, N-(1-(2,3-dichlorophenyl)ethyl)-3-(pyridazin-3-yl)aniline] was tested. Which IC50 did it give?
Answer: > 1000 nM

Question: For `CC(Nc1ccc2ccn(C)c(=O)c2c1)c1c(Cl)cccc1Cl` (racemic) [Example 151, 7-((1-(2,6-dichlorophenyl)ethyl)amino)-2-methylisoquinolin-1(2H)-one], which IC50 is on record?
Answer: 100 to 500 nM

Question: Which IC50 does the source give for `CCC(Nc1ccc2cc[nH]c(=O)c2c1)c1nccc(Cl)c1Cl` (racemic) [Example 153, 7-((1-(3,4-dichloropyridin-2-yl)propyl)amino)isoquinolin-1(2H)-one] here?
Answer: < 100 nM

Question: With `CCC(Nc1ccc2c(c1)C(=O)NCC2)c1nccc(Cl)c1Cl` (racemic) [Example 154, 7-((1-(3,4-dichloropyridin-2-yl)propyl)amino)-3,4-dihydroisoquinolin-1(2H)-one] as the compound, how does the IC50 read?
Answer: 100 to 500 nM

Question: With `CCC(Nc1ccc2nc[nH]c(=O)c2c1)c1nccc(Cl)c1Cl` (racemic) [Example 155, 6-((1-(3,4-dichloropyridin-2-yl)propyl)amino)quinazolin-4(3H)-one] as the compound, how does the IC50 read?
Answer: 100 to 500 nM

Question: Which IC50 does the source give for `CC(Nc1ccc2nc[nH]c(=O)c2c1)c1ccc(F)c(Cl)c1Cl` (racemic) [Example 156, 6-[1-(2,3-dichloro-4-fluoro-phenyl)ethylamino]-3H-quinazolin-4-one] here?
Answer: < 100 nM

Question: With `CC(Nc1ccc2c(c1)C(=O)NCN2)c1ccc(F)c(Cl)c1Cl` (racemic) [Example 157, 6-((1-(2,3-dichloro-4-fluorophenyl)ethyl)amino)-2,3-dihydroquinazolin-4(1H)-one] as the compound, how does the IC50 read?
Answer: 100 to 500 nM

Question: With `O=C1NCCc2ccc(NS(=O)(=O)N3C[C@@H]4CC[C@H]3C4)cc21` (racemic) [Example 167, N-(1-oxo-1,2,3,4-tetrahydroisoquinolin-7-yl)-2-azabicyclo[2.2.1]heptane-2-sulfonamide] as the compound, how does the IC50 read?
Answer: > 1000 nM

Question: For `CC1CCCN(S(=O)(=O)Nc2ccc3c(c2)C(=O)NCC3)C1` (racemic) [Example 169, 3-methyl-N-(1-oxo-1,2,3,4-tetrahydroisoquinolin-7-yl)piperidine-1-sulfonamide], which IC50 is on record?
Answer: > 1000 nM

Question: With `Cc1c(F)ccc(C(C)Nc2ccc3cc[nH]c(=O)c3c2)c1Cl` (racemic) [Example 192, 7-[1-(2-chloro-4-fluoro-3-methyl-phenyl)ethylamino]-2H-isoquinolin-1-one] as the compound, how does the IC50 read?
Answer: < 100 nM

Question: `CC(Nc1ccc2nc[nH]c(=O)c2c1)c1c(Cl)ccc(F)c1Cl` (racemic) [Example 193, 6-((1-(2,6-dichloro-3-fluorophenyl)ethyl)amino)quinazolin-4(3H)-one] was tested. Which IC50 did it give?
Answer: < 100 nM

Question: `CC(Nc1ccc2nc[nH]c(=O)c2c1)c1c(Cl)ccc(Cl)c1Cl` (racemic) [Example 195, 6-((1-(2,3,6-trichlorophenyl)ethyl)amino)quinazolin-4(3H)-one] was tested. Which IC50 did it give?
Answer: < 100 nM

Question: `CC(Nc1ccc2cn[nH]c(=O)c2c1)c1c(Cl)ccc(Cl)c1Cl` (racemic) [Example 198, 7-((1-(2,3,6-trichlorophenyl)ethyl)amino)phthalazin-1(2H)-one] was tested. Which IC50 did it give?
Answer: < 100 nM

Question: With `CC(Nc1ccc2cn[nH]c(=O)c2c1)c1cc(F)cc(Cl)c1Cl` (racemic) [Example 200, 7-((1-(2,3-dichloro-5-fluorophenyl)ethyl)amino)phthalazin-1(2H)-one] as the compound, how does the IC50 read?
Answer: 100 to 500 nM

Question: `CC(Nc1ccc2cc[nH]c(=O)c2c1)c1ccc(F)c(Cl)c1Cl` (racemic) [Example 203, 7-[1-(2,3-dichloro-4-fluoro-phenyl)ethylamino]-2H-isoquinolin-1-one] was tested. Which IC50 did it give?
Answer: < 100 nM

Question: `CC(Nc1ccc2cc[nH]c(=O)c2n1)c1cc(F)cc(Cl)c1Cl` (racemic) [Example 205, 2-((1-(2,3-dichloro-5-fluorophenyl)ethyl)amino)-1,7-naphthyridin-8(7H)-one] was tested. Which IC50 did it give?
Answer: < 100 nM

Question: `CC(Nc1ccc2c(c1)NC(=O)C2(C)C)c1nccc(Cl)c1Cl` (racemic) [Example 210, 6-((1-(3,4-dichloropyridin-2-yl)ethyl)amino)-3,3-dimethylindolin-2-one] was tested. Which IC50 did it give?
Answer: < 100 nM

Question: How did the IC50 turn out when `Cc1nc(C(C)Nc2ccc3cc[nH]c(=O)c3c2)sc1C` (racemic) [Example 213, 7-((1-(4,5-dimethylthiazol-2-yl)ethyl)amino)isoquinolin-1(2H)-one] was run?
Answer: < 100 nM

Question: How did the IC50 turn out when `CC(Nc1ccc2cc[nH]c(=O)c2c1)c1nn2c(c1Cl)CCC2` (racemic) [Example 221, 7-((1-(3-chloro-5,6-dihydro-4H-pyrrolo[1,2-b]pyrazol-2-yl)ethyl)amino)isoquinolin-1(2H)-one] was run?
Answer: 100 to 500 nM

Question: How did the IC50 turn out when `Cc1n[nH]c(=O)c2cc(NC(C)c3c(Cl)ccc(F)c3Cl)ccc12` (racemic) [Example 222, 7-((1-(2,6-dichloro-3-fluorophenyl)ethyl)amino)-4-methylphthalazin-1(2H)-one] was run?
Answer: < 100 nM

Question: `Cc1n[nH]c(=O)c2cc(NC(C)c3nc(Cl)c(Cl)s3)ccc12` (racemic) [Example 223, 7-((1-(4,5-dichlorothiazol-2-yl)ethyl)amino)-4-methylphthalazin-1(2H)-one] was tested. Which IC50 did it give?
Answer: < 100 nM

Question: With `CC1(C)C(=O)Nc2cc(NC(CO)c3c(Cl)ccc(F)c3Cl)ccc21` (racemic) [Example 238, 6-((1-(2,6-dichloro-3-fluorophenyl)-2-hydroxyethyl)amino)-3,3-dimethylindolin-2-one] as the compound, how does the IC50 read?
Answer: < 100 nM

Question: `CC(Nc1ccc2c(c1)NC(=O)C21CC1)c1nc(Cl)c(Cl)s1` (racemic) [Example 244, 6′-((1-(4,5-dichlorothiazol-2-yl)ethyl)amino)spiro[cyclopropane-1,3′-indolin]-2′-one] was tested. Which IC50 did it give?
Answer: < 100 nM

Question: Which IC50 does the source give for `Cc1n[nH]c(=O)c2cc(NC(CO)c3c(Cl)ccc(F)c3Cl)ccc12` (racemic) [Example 250, 7-[[1-(2,6-dichloro-3-fluoro-phenyl)-2-hydroxy-ethyl]amino]-4-methyl-2H-phthalazin-1-one] here?
Answer: < 100 nM

Question: `CCC(Nc1ccc2c(Cl)n[nH]c(=O)c2c1)c1nc(Cl)c(Cl)s1` (racemic) [Example 254, 4-chloro-7-[1-(4,5-dichlorothiazol-2-yl)propylamino]-2H-phthalazin-1-one] was tested. Which IC50 did it give?
Answer: < 100 nM

Question: With `CC1(C)C(=O)Nc2cc(NC(CCO)c3nc(Cl)c(Cl)s3)ccc21` (racemic) [Example 292, 6-((1-(4,5-dichlorothiazol-2-yl)-3-hydroxypropyl)amino)-3,3-dimethylindolin-2-one] as the compound, how does the IC50 read?
Answer: < 100 nM

Question: Which IC50 does the source give for `Cc1n[nH]c(=O)c2cc(NC(CCO)c3nc(Cl)c(Cl)s3)ccc12` (racemic) [Example 294] here?
Answer: < 100 nM
